Biological target: T1, hTRPV3 (Homo sapiens, UniProt Q8NET8)
T1 construct: The commercially available plasmid with the full-length cDNA of hTRPV3 (791 aa) (NM_001258205.2); host or cells: HEK293T
T1 sequence (Q8NET8 1-791 isoform Q8NET8-2): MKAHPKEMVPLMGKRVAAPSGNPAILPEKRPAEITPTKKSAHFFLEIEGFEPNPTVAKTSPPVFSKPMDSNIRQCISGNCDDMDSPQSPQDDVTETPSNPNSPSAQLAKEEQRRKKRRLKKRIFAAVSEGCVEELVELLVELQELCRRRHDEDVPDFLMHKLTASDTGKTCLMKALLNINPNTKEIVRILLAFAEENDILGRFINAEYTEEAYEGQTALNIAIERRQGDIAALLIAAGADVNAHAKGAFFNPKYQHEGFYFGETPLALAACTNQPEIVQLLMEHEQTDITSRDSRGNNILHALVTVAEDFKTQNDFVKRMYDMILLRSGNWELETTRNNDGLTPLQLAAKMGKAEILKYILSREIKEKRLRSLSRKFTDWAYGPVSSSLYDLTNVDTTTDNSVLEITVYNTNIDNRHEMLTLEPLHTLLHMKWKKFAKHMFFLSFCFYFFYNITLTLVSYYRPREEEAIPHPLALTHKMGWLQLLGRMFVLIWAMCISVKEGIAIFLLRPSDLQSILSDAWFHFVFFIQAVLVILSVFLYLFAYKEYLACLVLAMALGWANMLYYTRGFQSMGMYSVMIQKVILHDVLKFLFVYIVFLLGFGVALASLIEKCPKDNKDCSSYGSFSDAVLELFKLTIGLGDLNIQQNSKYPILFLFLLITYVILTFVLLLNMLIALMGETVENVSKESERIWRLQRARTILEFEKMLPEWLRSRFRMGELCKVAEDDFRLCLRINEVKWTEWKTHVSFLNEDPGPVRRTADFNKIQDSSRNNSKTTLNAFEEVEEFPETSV
Test: Whole-cell patch-clamp recording of hTRPV3 current in transfected HEK293T cells (2-APB induced)
Type: cell-based
Details: current induced by 300 μM 2-APB, compounds tested up to 10 μM, room temperature
Description: Various technologies can be utilized to assess TRPV3 activation in accordance with the present disclosure. For example, in some embodiments, compounds are assessed in in vitro patch clamp experiments. Certain useful procedures are described herein as examples.
In some embodiments, whole-cell patch-clamp recordings were used to detect the current through hTRPV3 channels in the HEK293T cell line transfected with hTRPV3 cDNA and evaluate the exact blocking effect of compounds on hTRPV3. In some embodiments, a perfusion system was adopted to control the extracellular solution, including the addition of the agonist and different antagonists.
HEK293T cells were cultured in a Dulbecco's modified Eagle's medium containing 10% fetal bovine serum (Thermo Scientific) and 1% penicillin/streptomycin (Thermo Scientific) at 37° C. with 5% CO2. The commercially available plasmid with the full-length cDNA of hTRPV3 (791 aa) (NM_001258205.2) was purchased from OriGene Technologies. The transfection of hTRPV3 plasmids was conducted using Lipofectamine™ 3000 following the manufacturer's instructions (Invitrogen).
Whole-cell patch-clamp experiments were performed 18 h post-transfection, using a MultiClamp 700B amplifier driven by pClamp 11 software (Molecular Devices). In order to achieve good single-cell physical separation, HEK293T cells with hTRPV3 expression were digested and then re-plated at low density on glass coverslips. Electrodes were pulled from borosilicate glass with a P-97 micropipette puller (Sutter Instruments) and those with resistances of 3-5 MΩ are used for experiments. In some embodiments, an Ag—AgCl wire was used as a reference electrode and signals are filtered using a 2.9 kHz low-pass Bessel filter. Membrane potential was held at 0 mV. For recording of agonist-induced activation and inhibition by different test compounds, currents were elicited by a protocol consisting of a 400-ms step to +80 mV, followed by a 400-ms step to −80 mV at 2-s intervals. both pipette and bath solutions contained 130 mM NaCl, 0.3 mM EDTA, and 3 mM HEPES (buffered to pH 7.4 with NaOH). All recordings were made at room temperature.
All patch-clamp recordings were analyzed using the Clampfit software and GraphPad Prism 6.0 software. Specifically, data are analyzed by calculating the degree of current amplitude after the test compound addition compared with the unblocked agonist-induced current amplitude. The resulting blocking percentage at each concentration was used to make a concentration-response analysis and fitted to the Hill equation: blocking percentage=minimum blocking percentage+ (maximum blocking percentage-minimum blocking percentage)/(1+10^(Hill slope* […])). The minimum blocking percentage is 0% and maximum blocking percentage is 100%, while the Hill slope and the IC50 were determined as the curve fitting routine. Compounds of interest were tested against hTRPV3 at concentrations up to 10 μM, and certain data was used to estimate IC50 as described herein.

IC50 | SMILES
≥ 10000 nM | COc1ncnc(OC)c1C(=O)Nc1nc2c(s1)C1(COC1)Oc1cc(C#N)ccc1-2 [compound 137, N-(7-cyanospiro[chromeno[4,3-d]thiazole-4,3′-oxetan]-2-yl)-4,6-dimethoxypyrimidine-5-carboxamide]
100 to 1000 nM | COCOCC1(COCOC)Oc2cc(C(F)(F)F)ccc2-c2nc(NC(=O)c3c(OC)ncnc3OC)sc21 [compound 118]
100 to 1000 nM | COc1ncnc(OC)c1C(=O)Nc1nc2c(s1)C1(COC1)Oc1cc(C3CC3)ccc1-2 [compound 138, N-(7-cyclopropylspiro[chromeno[4,3-d]thiazole-4,3′-oxetan]-2-yl)-4,6-dimethoxypyrimidine-5-carboxamide]
< 100 nM | CCOC(=O)C1CC2(C1)Oc1cc(C(F)(F)F)ccc1-c1nc(NC(=O)c3c(OC)ncnc3OC)sc12 (stereo not drawn) [compound 133, ethyl 2-(4,6-dimethoxypyrimidine-5-carboxamido)-7-(trifluoromethyl)spiro[chromeno[4,3-d]thiazole-4,1′-cyclobutane]-3′-carboxylate]
1000 to 10000 nM | CCC1(CC)Oc2cc(C(F)(F)F)ccc2-c2nc(NC(=O)c3c(OC)nc(C)nc3OC)sc21 [compound 162, N-(4,4-diethyl-7-(trifluoromethyl)-4H-chromeno[4,3-d]thiazol-2-yl)-4,6-dimethoxy-2-methylpyrimidine-5-carboxamide]
≥ 10000 nM | COc1ncnc(OC)c1C(=O)Nc1nc2c(s1)C1(CN(CC(=O)O)C1)Oc1cc(C(F)(F)F)ccc1-2 [compound 165]
1000 to 10000 nM | CCC1(CC)Oc2cc(C(C)=O)ccc2-c2nc(NC(=O)c3c(OC)ncnc3OC)sc21 [compound 117, N-(7-acetyl-4,4-diethyl-4H-chromeno[4,3-d]thiazol-2-yl)-4,6-dimethoxypyrimidine-5-carboxamide]
≥ 10000 nM | CCC1(CC)Oc2cc(C(F)(F)F)ccc2-c2nc(NC(=O)c3c(OC)nn(C)c3Br)sc21 [compound 161, 5-bromo-N-(4,4-diethyl-7-(trifluoromethyl)-4H-chromeno[4,3-d]thiazol-2-yl)-3-methoxy-1-methyl-1H-pyrazole-4-carboxamide]
100 to 1000 nM | COc1ncnc(OC)c1C(=O)Nc1nc2c(s1)C1(CCC(NC(=O)OC(C)(C)C)CC1)Oc1cc(C(F)(F)F)ccc1-2 (stereo not drawn) [compound 109]
1000 to 10000 nM | COc1ncnc(OC)c1C(=O)Nc1nc2c(s1)C1(CCC(C(=O)NC(C)C)CC1)Oc1cc(C(F)(F)F)ccc1-2 (stereo not drawn) [compound 125, 2-(4,6-dimethoxypyrimidine-5-carboxamido)-N-isopropyl-7-(trifluoromethyl)spiro[chromeno[4,3-d]thiazole-4,1′-cyclohexane]-4′-carboxamide]
≥ 10000 nM | COc1ncnc(O)c1C(=O)Nc1nc2c(s1)C1(COC1)Oc1cc(C(C)C)ccc1-2 [compound 144, 4-hydroxy-N-(7-isopropylspiro[chromeno[4,3-d]thiazole-4,3′-oxetan]-2-yl)-6-methoxypyrimidine-5-carboxamide]

More lines, now with the values behind:

SMILES | IC50
C#Cc1ccc2c(c1)OC(CC)(CC)c1sc(NC(=O)c3c(OC)ncnc3OC)nc1-2 [compound 81, N-(4,4-diethyl-7-ethynyl-4H-chromeno[4,3-d]thiazol-2-yl)-4,6-dimethoxypyrimidine-5-carboxamide] | 100 to 1000 nM
CCCCOC(=O)N1CC2(C1)Oc1cc(C(F)(F)F)ccc1-c1nc(NC(=O)c3c(OC)ncnc3OC)sc12 [compound 77, butyl 2′-(4,6-dimethoxypyrimidine-5-carboxamido)-7′-(trifluoromethyl)spiro[azetidine-3,4′-chromeno[4,3-d]thiazole]-1-carboxylate] | 100 to 1000 nM
COc1ncnc(OC)c1C(=O)Nc1nc2c(s1)C1(CN(C(C)=O)C1)Oc1cc(C(F)(F)F)ccc1-2 [compound 68, N-(1-acetyl-7′-(trifluoromethyl)spiro[azetidine-3,4′-chromeno[4,3-d]thiazol]-2′-yl)-4,6-dimethoxypyrimidine-5-carboxamide] | 1000 to 10000 nM
CCC1(CC)Oc2cc(C(F)(F)F)ccc2-c2nc(NC(=O)c3c(OC)nc(O)nc3OC)sc21 [compound 79] | ≥ 10000 nM
COc1ncnc(OC)c1C(=O)Nc1nc2c(s1)C(C)(c1ccccc1)Oc1cc(C(F)(F)F)ccc1-2 (stereo not drawn) [compound 25, 4,6-dimethoxy-N-(4-methyl-4-phenyl-7-(trifluoromethyl)-4H-chromeno[4,3-d]thiazol-2-yl)pyrimidine-5-carboxamide] | < 100 nM
CCC1(CC)Oc2cc(C(F)(F)F)ccc2-c2nc(NC(=O)c3nccnc3OC)sc21 [compound 96, N-(4,4-diethyl-7-(trifluoromethyl)-4H-chromeno[4,3-d]thiazol-2-yl)-3-methoxypyrazine-2-carboxamide] | 1000 to 10000 nM
COc1ncnc(OC)c1C(=O)Nc1nc2c(s1)C1(CCOCC1)Oc1cc(C(F)(F)F)ccc1-2 [compound 59, 4,6-dimethoxy-N-(7-(trifluoromethyl)-2′,3′,5′,6′-tetrahydrospiro[chromeno[4,3-d]thiazole-4,4′-pyran]-2-yl)pyrimidine-5-carboxamide] | 100 to 1000 nM
CNC(=O)C1CCC2(CC1)Oc1cc(C(F)(F)F)ccc1-c1nc(NC(=O)c3c(OC)ncnc3OC)sc12 (stereo not drawn) [compound 103, 2-(4,6-dimethoxypyrimidine-5-carboxamido)-N-methyl-7-(trifluoromethyl)spiro[chromeno[4,3-d]thiazole-4,1′-cyclohexane]-4′-carboxamide] | 1000 to 10000 nM
CCOC(=O)CCCC1(C)Oc2cc(C(F)(F)F)ccc2-c2nc(NC(=O)c3c(OC)ncnc3OC)sc21 (stereo not drawn) [compound 104, ethyl 4-(2-(4,6-dimethoxypyrimidine-5-carboxamido)-4-methyl-7-(trifluoromethyl)-4H-chromeno[4,3-d]thiazol-4-yl)butanoate] | 100 to 1000 nM
CCC1(CC)Oc2cc(C#N)ccc2-c2nc(NC(=O)c3c(OC)ncnc3OC)sc21 [compound 50, N-(7-cyano-4,4-diethyl-4H-chromeno[4,3-d]thiazol-2-yl)-4,6-dimethoxypyrimidine-5-carboxamide] | 100 to 1000 nM
COc1ncnc(OC)c1C(=O)Nc1nc2c(s1)c(=O)oc1cc(C(F)(F)F)ccc12 [compound 9, 4,6-dimethoxy-N-(4-oxo-7-(trifluoromethyl)-4H-chromeno[4,3-d]thiazol-2-yl)pyrimidine-5-carboxamide] | ≥ 10000 nM
COc1ncnc(OC)c1C(=O)NC1=NC2c3ccc(C(F)(F)F)cc3OC3(CCC3)C2S1 (stereo not drawn) [compound 19, 4,6-dimethoxy-N-(7-(trifluoromethyl)-3a,9b-dihydrospiro[chromeno[4,3-d]thiazole-4,1′-cyclobutan]-2-yl)pyrimidine-5-carboxamide] | 100 to 1000 nM
COc1ncnc(OC)c1C(=O)Nc1nc2c(s1)C1(CCC(C(=O)O)CC1)Oc1cc(C(F)(F)F)ccc1-2 (stereo not drawn) [compound 101, 2-(4,6-dimethoxypyrimidine-5-carboxamido)-7-(trifluoromethyl)spiro[chromeno[4,3-d]thiazole-4,1′-cyclohexane]-4′-carboxylic acid] | ≥ 10000 nM

Source: patent publication US20260217697A1, “COMPOUNDS COMPRISING HETEROARYL RINGS AND COMPOSITIONS AND METHODS THEREOF” (lonGen Therapeutics Co., Ltd., priority 2022, published 2026)
